The target of one series is T1, OmpF3–MlaA (Escherichia coli, UniProt P02931+P76506).
T1 sequence (P02931 23-362): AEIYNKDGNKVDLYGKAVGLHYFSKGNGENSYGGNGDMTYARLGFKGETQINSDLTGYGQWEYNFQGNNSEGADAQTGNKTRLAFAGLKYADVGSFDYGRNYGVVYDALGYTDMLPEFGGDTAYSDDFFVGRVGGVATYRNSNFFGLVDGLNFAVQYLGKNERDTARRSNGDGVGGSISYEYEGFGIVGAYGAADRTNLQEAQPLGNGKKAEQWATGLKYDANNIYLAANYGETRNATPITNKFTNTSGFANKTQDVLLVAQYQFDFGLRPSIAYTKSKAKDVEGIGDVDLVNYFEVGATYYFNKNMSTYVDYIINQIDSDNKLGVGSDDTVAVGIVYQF
T1 sequence (P76506 18-251): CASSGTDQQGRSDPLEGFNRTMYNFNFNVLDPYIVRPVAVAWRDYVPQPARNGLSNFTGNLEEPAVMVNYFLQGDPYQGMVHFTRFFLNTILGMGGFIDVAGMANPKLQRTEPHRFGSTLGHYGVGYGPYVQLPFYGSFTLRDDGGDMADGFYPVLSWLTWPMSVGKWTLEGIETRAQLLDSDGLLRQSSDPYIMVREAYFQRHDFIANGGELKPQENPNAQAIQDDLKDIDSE
Kind of series: native MS of lipid-bound complex. Type of series: binding. The note with it: incubated with synthetic lipid.

For the next series, the target named is T2, OmpF3 (Escherichia coli, UniProt P02931).
T2 sequence (P02931 23-362): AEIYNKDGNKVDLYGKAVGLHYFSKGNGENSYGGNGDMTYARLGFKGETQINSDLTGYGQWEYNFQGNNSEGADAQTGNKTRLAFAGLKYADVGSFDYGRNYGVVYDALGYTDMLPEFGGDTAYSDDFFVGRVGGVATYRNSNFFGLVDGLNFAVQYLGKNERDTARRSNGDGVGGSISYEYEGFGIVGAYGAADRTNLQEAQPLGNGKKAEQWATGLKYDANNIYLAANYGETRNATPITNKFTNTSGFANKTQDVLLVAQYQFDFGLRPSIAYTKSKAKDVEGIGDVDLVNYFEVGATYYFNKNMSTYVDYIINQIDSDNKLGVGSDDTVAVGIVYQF
Kind of series: native MS of lipid-bound complex. Particulars: incubated with synthetic lipid; negative ion mode; MlaA-free trimer. Type of series: binding.

The target in another series is T3, MlaC (Escherichia coli, UniProt P0ADV7).
T3 sequence (P0ADV7 22-211): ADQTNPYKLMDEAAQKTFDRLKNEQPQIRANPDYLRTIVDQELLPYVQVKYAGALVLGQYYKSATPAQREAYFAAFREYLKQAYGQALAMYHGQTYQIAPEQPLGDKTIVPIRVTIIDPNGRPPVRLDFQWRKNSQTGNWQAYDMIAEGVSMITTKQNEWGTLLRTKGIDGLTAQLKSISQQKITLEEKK
Kind of series: native MS of lipid-loaded MlaC after buffer exchange. It counts as binding. The note with it: 5 µM delipidated MlaC, 25 µM lipid, 5 min, 2xCMC C8E4, 200 mM ammonium acetate pH 7.0, no OmpF3–MlaA.

The series “native MS” deals with the molecule itself. Kind of series: native MS.

Results on six molecules are retold here after article PMC12002339 (Proceedings of the National Academy of Sciences of the …, 2025).

In the case of `CCCCCCCCCCCCCCCCCC(=O)OC[C@H](COP(=O)(O)OCC(O)CO)OC(=O)CCCCCCCCCCCCCCCCC` (stereo partly shown) [DSPG], the “degree of phospholipid binding” value on OmpF3–MlaA was “Varying the degree of saturation (DSPG) or length (POPG) of the lipid chains”. Take `CCCCCCCC/C=C\CCCCCCCC(=O)OC[C@H](COP(=O)([O-])OCC[N+](C)(C)C)OC(=O)CCCCCCC/C=C\CCCCCCCC` [DOPC]: the “degree of phospholipid binding” value on OmpF3 was “DOPC binds with high affinity to OmpF3 and OmpF3–MlaA”; at OmpF3–MlaA (positive and negative ion mode) it was “DOPC binds with high affinity to OmpF3 and OmpF3–MlaA”. For `CCCCCCCC/C=C\CCCCCCCC(=O)OC[C@H](COP(=O)(O)OCC(O)CO)OC(=O)CCCCCCC/C=C\CCCCCCCC` (stereo partly shown) [DOPG], the “% MlaC loaded” value at MlaC is ~ 5%. Turning to `CCCCCCCC/C=C\CCCCCCCC(=O)O[C@H](COC(=O)CCCCCCCCCCCCCCC)COP(=O)(O)OCC(O)CO` (stereo partly shown) [POPG], the “degree of phospholipid binding” value at OmpF3–MlaA is on record as “Varying the degree of saturation (DSPG) or length (POPG) of the lipid chains”.

Take `CCCCCCCC/C=C\CCCCCCCC(=O)OC[C@H](COP(=O)(O)OCCN)OC(=O)CCCCCCC/C=C\CCCCCCCC` [DOPE]: at OmpF3–MlaA (positive and negative ion mode), the “degree of phospholipid binding” value was “DOPE binds with intermediate affinity, and its binding is strongly increased by MlaA”.

B1: OmpF (natural protein)
chain: AEIYNKDGNKVDLYGKAVGLHYFSKGNGENSYGGNGDMTYARLGFKGETQINSDLTGYGQWEYNFQGNNSEGADAQTGNKTRLAFAGLKYADVGSFDYGRNYGVVYDALGYTDMLPEFGGDTAYSDDFFVGRVGGVATYRNSNFFGLVDGLNFAVQYLGKNERDTARRSNGDGVGGSISYEYEGFGIVGAYGAADRTNLQEAQPLGNGKKAEQWATGLKYDANNIYLAANYGETRNATPITNKFTNTSGFANKTQDVLLVAQYQFDFGLRPSIAYTKSKAKDVEGIGDVDLVNYFEVGATYYFNKNMSTYVDYIINQIDSDNKLGVGSDDTVAVGIVYQF
A word on the stoichiometry N: it is a count of units in the complex or per binding partner. For the molecule B1, the “stoichiometry N” value in the series “native MS” was determined as 3.
